Earlier results in patent US20130281394A1, “Chemosensory Receptor Ligand-Based Therapies” (ELCELYX THERAPEUTICS, INC., priority 2010, published 2013).
Marks after values point to notes of the source that are not given here.

Tests used:
[1] = test system: bitter receptor
[2] = molecular target: T1, sweet receptor (Homo sapiens, UniProt Q7RTX0+Q8TE23); conditions: relative sweetness on a weight comparison basis to sucrose (= 1.0); ranges: varied with the concentration of sucrose
T1 sequence (Q8TE23 20-839): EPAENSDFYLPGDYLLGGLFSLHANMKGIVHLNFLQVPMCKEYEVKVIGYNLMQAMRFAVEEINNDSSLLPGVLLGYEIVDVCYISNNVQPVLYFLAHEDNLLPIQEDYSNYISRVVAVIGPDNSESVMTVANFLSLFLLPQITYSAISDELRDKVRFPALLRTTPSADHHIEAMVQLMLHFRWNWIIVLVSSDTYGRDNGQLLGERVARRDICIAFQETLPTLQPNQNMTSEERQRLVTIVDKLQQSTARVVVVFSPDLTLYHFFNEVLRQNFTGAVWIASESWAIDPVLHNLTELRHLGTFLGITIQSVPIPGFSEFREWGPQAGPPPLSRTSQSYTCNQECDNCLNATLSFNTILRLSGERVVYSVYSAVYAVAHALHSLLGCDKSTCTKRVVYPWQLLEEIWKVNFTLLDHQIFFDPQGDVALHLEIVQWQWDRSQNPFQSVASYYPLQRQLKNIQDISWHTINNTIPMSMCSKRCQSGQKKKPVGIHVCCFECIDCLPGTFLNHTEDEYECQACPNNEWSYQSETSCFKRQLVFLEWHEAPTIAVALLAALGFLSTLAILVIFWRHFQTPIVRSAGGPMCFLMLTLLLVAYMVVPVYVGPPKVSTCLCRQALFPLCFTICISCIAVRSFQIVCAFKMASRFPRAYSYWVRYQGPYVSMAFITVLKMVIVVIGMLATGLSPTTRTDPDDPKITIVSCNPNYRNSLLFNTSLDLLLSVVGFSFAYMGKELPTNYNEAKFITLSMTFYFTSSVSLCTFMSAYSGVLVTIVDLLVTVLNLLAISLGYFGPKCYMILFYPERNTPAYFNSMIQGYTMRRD
T1 sequence (Q7RTX0 21-852): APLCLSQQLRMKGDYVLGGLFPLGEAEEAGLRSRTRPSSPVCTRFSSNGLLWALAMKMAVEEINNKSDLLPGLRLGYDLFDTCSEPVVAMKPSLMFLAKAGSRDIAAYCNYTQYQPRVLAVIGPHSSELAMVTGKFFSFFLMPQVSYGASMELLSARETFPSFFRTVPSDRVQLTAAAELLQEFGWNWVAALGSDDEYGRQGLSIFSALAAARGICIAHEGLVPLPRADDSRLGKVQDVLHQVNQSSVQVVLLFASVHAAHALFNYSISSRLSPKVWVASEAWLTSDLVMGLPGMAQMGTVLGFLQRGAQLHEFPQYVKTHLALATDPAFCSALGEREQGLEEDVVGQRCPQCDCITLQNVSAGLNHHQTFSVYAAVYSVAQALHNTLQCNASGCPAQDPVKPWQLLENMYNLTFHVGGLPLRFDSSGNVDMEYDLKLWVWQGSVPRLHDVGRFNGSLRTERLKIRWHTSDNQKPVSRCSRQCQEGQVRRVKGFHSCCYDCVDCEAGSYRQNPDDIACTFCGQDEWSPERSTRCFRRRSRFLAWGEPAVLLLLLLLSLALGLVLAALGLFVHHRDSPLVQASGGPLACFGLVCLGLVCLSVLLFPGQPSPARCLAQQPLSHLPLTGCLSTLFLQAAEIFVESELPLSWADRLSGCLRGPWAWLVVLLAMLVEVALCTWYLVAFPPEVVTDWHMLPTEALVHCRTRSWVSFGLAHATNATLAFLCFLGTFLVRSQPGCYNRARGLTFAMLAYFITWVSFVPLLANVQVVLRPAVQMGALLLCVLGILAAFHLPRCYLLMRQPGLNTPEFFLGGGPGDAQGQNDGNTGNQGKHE

Row | Taste quality [1] | Sweetness/potency [2] | Compound
1 | Bitter | – | C=CC1CNC(=S)O1 (centres unmarked) [Goitrin 5-vinyl-2-oxazolidine thione, 5-vinyl-2-oxazolidine thione]
2 | Bitter | – | COc1ccc(-c2cc(=O)c3c(OC)c(OC)c(OC)c(OC)c3o2)cc1OC [Nobiletin]
3 | Bitter with sweet | – | O=C(O[C@@H]1Cc2c(O)cc(O)cc2O[C@@H]1c1cc(O)c(O)c(O)c1)c1cc(O)c(O)c(O)c1 [Epigallocatechin gallate]
4 | Bitter or astringent | – | O=c1c(-c2ccc(O)cc2)coc2cc(O)ccc12 [daidzein]
5 | Bitter | – | C=C[C@H](O)CC(=NOS(=O)(=O)O)S[C@@H]1O[C@H](CO)[C@@H](O)[C@H](O)[C@H]1O [Progoitrin]
6 | Astringent | – | O=c1c(-c2ccc(O)cc2)coc2cc(O[C@@H]3O[C@H](CO)[C@@H](O)[C@H](O)[C@H]3O)cc(O)c12 [Genistin]
7 | Bitter | – | O=S(=O)(O)ON=C(Cc1c[nH]c2ccccc12)S[C@@H]1O[C@H](CO)[C@@H](O)[C@H](O)[C@H]1O [Glucobrassicin]
8 | Bitter | – | COc1ccc(-c2cc(=O)c3c(OC)c(OC)c(OC)c(OC)c3o2)cc1 [Tangeretin]
9 | Bitter | – | COc1ccc(-c2cc(=O)c3c(OC)c(OC)c(OC)cc3o2)cc1OC [Sinensetin]
10 | – | 221 | C=C1C[C@@]23CC[C@H]4[C@@](C)(CCC[C@@]4(C)C(=O)O[C@@H]4O[C@H](CO)[C@@H](O)[C@H](O)[C@H]4O[C@@H]4O[C@H](CO)[C@@H](O)[C@H](O)[C@H]4O)[C@@H]2CC[C@]1(O[C@@H]1O[C@H](CO)[C@@H](O)[C@H](O[C@@H]2O[C@H](CO)[C@@H](O)[C@H](O)[C@H]2O)[C@H]1O[C@@H]1O[C@H](CO)[C@@H](O)[C@H](O)[C@H]1O)C3 [Rebaudioside D]
11 | – | 400 | COc1ccc([C@H]2Cc3cccc(O)c3C(=O)O2)cc1O [Phyllodulcin]
12 | Tasteless | – | CC1(C)O[C@H]2CC(=O)OC[C@]23[C@H]2CC[C@@](C)([C@@H](O[C@@H]4O[C@H](CO)[C@@H](O)[C@H](O)[C@H]4O)c4ccoc4)[C@@]4(O[C@@H]4C(=O)O)[C@]2(C)C(=O)C[C@@H]13 [Limonin glucoside]
13 | – | 600 | Polypodoside A
14 | – | 50 | Pterocaryoside A
15 | – | 300 | C[C@@H]1O[C@@H](O[C@H]2[C@H](Oc3cc(O)c(C(=O)CCc4ccc(O)cc4)c(O)c3)O[C@H](CO)[C@@H](O)[C@@H]2O)[C@H](O)[C@H](O)[C@H]1O [Naringin dihydrochalcone]
16 | – | 30 | Rebaudioside C
17 | – | 92 | CC1(C(=O)O)C=C2C3CCC4C5(CO)CCC(OC6OC(C(=O)O)C(O)C(O)C6OC6OC(C(=O)O)C(O)C(O)C6O)C(C)(C)C5CCC4(C)C3(C)CCC2(C)CC1 (centres unmarked) [Periandrin III]
18 | – | 500 | Pentadin
19 | – | 90 | CC1(C)[C@@H](O[C@@H]2O[C@H](C(=O)O)[C@@H](O)[C@H](O)[C@H]2O[C@@H]2O[C@H](C(=O)O)[C@@H](O)[C@H](O)[C@H]2O)CC[C@]2(C=O)[C@H]3CC[C@@H]4C5=C[C@@](C)(C(=O)O)CC[C@]5(C)CC[C@@]4(C)[C@]3(C)CC[C@@H]12 [Periandrin I]
20 | – | 500 | C[C@@H]1O[C@@H](O[C@H]2O[C@@H]([C@@H](C)C3CC[C@@H]4[C@H]5CC(=O)[C@@H]6C[C@H](O[C@@H]7O[C@H](CO)[C@@H](O)[C@H](O)[C@H]7O[C@@H]7O[C@@H](C)[C@H](O)[C@@H](O)[C@H]7O)CC[C@]6(C)[C@@H]5CC[C@]34C)CC[C@@H]2C)[C@H](O)[C@H](O)[C@H]1O (some centres unmarked) [Osladin]
21 | – | 1,000 | COc1ccc(CCC(=O)c2c(O)cc(O[C@@H]3O[C@H](CO)[C@@H](O)[C@H](O)[C@H]3O[C@@H]3O[C@@H](C)[C@H](O)[C@@H](O)[C@H]3O)cc2O)cc1O [Neohesperidin dihydrochalcone]

Second part, the compound before the results:

Row | Compound | Taste quality [1] | Sweetness/potency [2]
22 | C=CCN=C=S [Allyl-isothiocyanate] | Acrid mustard oils; | –
23 | O=C(O[C@@H]1Cc2c(O)cc(O)cc2O[C@@H]1c1ccc(O)c(O)c1)c1cc(O)c(O)c(O)c1 [Epicatechin gallate] | Bitter and astringent | –
24 | C[S+]([O-])CCCN=C=S (centres unmarked) [3-Methyl-sulfinylpropyl isothiocyanate] | Acrid mustard oils | –
25 | S=C=NCc1ccccc1 [Benzyl isothiocyanate] | Acrid mustard oils; | –
26 | C[S+]([O-])CCCCN=C=S (centres unmarked) [4-Methylsulfinyl butyl isothiocyanate] | Acrid mustard oils | –
27 | CC(=O)O[C@H]1CC(=O)OC(C)(C)[C@@H]2CC(=O)[C@]3(C)[C@H](CC[C@@]4(C)[C@H](c5ccoc5)OC(=O)[C@H]5O[C@]543)[C@@]12C [Nomilin] | Bitter | –
28 | Oc1cc2c(cc1O)[C@@H]1c3ccc(O)c(O)c3OC[C@]1(O)C2 [Hematoxylin] | – | 120
29 | COc1c(O)cc2c(c1O)C(=O)[C@H](OC(C)=O)[C@@H](c1ccc(O)c(O)c1)O2 [(2R,3R)-2,3-Dihydro-5,7,3′,4′-tetrahydroxy-6-methoxy-3-O-acetylflavonol] | – | 25
30 | C[C@H](CC[C@@H](O[C@@H]1O[C@H](CO)[C@@H](O)[C@H](O)[C@H]1O[C@@H]1O[C@H](CO)[C@@H](O)[C@H](O)[C@H]1O)C(C)(C)O)[C@H]1CC[C@@]2(C)[C@H]3CC=C4[C@@H](CC[C@H](O[C@@H]5O[C@H](CO[C@@H]6O[C@H](CO)[C@@H](O)[C@H](O)[C@H]6O)[C@@H](O)[C@H](O)[C@H]5O)C4(C)C)[C@]3(C)[C@H](O)C[C@]12C [Mogroside IV] | – | 233-392^d
31 | C[C@H](CC[C@@H](O[C@@H]1O[C@H](CO[C@@H]2O[C@H](CO)[C@@H](O)[C@H](O)[C@H]2O)[C@@H](O)[C@H](O)[C@H]1O[C@@H]1O[C@H](CO)[C@@H](O)[C@H](O)[C@H]1O)C(C)(C)O)[C@H]1CC[C@@]2(C)[C@@H]3CC=C4[C@@H](CC[C@H](O[C@@H]5O[C@H](CO)[C@@H](O)[C@H](O)[C@H]5O)C4(C)C)[C@]3(C)[C@H](O)C[C@]12C [Siamenoside I] | – | 563
32 | COc1c(O)cc2c(c1O)C(=O)[C@H](OC(C)=O)[C@@H](c1ccc(O)cc1)O2 [(2R,3R)-2,3-Dihydro-5,7,4′-trihydroxy-6-methoxy-3-O-acetylflavonol] | – | 20
33 | C[C@H](CC[C@@H](O[C@@H]1O[C@H](CO[C@@H]2O[C@H](CO)[C@@H](O)[C@H](O)[C@H]2O)[C@@H](O)[C@H](O)[C@H]1O[C@@H]1O[C@H](CO)[C@@H](O)[C@H](O)[C@H]1O)C(C)(C)O)[C@H]1CC[C@@]2(C)[C@@H]3CC=C4[C@@H](CC[C@H](O[C@@H]5O[C@H](CO[C@@H]6O[C@H](CO)[C@@H](O)[C@H](O)[C@H]6O)[C@@H](O)[C@H](O)[C@H]5O)C4(C)C)[C@]3(C)[C@H](O)C[C@]12C [Mogroside V] | – | 250-425^d
34 | Curculin | – | 550
35 | COC(=O)[C@H]1O[C@@H](O[C@H]2[C@H](O[C@H]3CC[C@]45C[C@]46CC[C@]4(C)[C@@H]([C@H](C)[C@@H]7CC=C(C)C(=O)O7)CC[C@@]4(C)[C@@H]6CC[C@H]5[C@]3(C)C(=O)O)O[C@H](CO)[C@@H](O)[C@@H]2O)[C@H](O)[C@@H](O)[C@@H]1O [Abrusoside B] | – | 100
36 | Carnosifloside V | – | 51
37 | C/C(=C\CC[C@@H](C)[C@H]1CC[C@@]2(C)[C@@H]3CC=C4[C@@H](CC[C@H](O[C@@H]5O[C@H](CO)[C@@H](O)[C@H](O)[C@H]5O)C4(C)C)[C@]3(C)[C@H](O)C[C@]12C)CO[C@@H]1O[C@H](CO[C@@H]2O[C@H](CO)[C@@H](O)[C@H](O)[C@H]2O)[C@@H](O)[C@H](O)[C@H]1O [Carnosifloside VI] | – | 77
38 | Baiyunoside | – | 500
